{"source": "patent US6358885B1", "about": "“Substituted phenylheterocyclic herbicides” (Mississippi State University, priority 1992, dated 2002)", "key": {"ryegrass": {"test_system": "ryegrass", "assay": "Test C preemergence/postemergence greenhouse plant response rating 0 to 100", "format": "in vivo, Lolium multiflorum", "settings": "POSTEMERGENCE; for Plant response rating Ryegrass: 0 to 100 scale", "in_short": "(§1)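 Compounds in non-phytotoxic solvent went onto sandy loam before emergence (seeded one day earlier) or onto plants at the one-to-four leaf stage. Duck salad was treated via flood water (~2.5 cm, maintained) over silt loam.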"}, "lambsquarters": {"test_system": "lambsquarters", "assay": "Test C preemergence/postemergence greenhouse plant response rating 0 to 100", "format": "in vivo, Chenopodium album", "settings": "POSTEMERGENCE; for Plant response rating Lambsquarters: 0 to 100 scale", "in_short": "as §1"}, "rape": {"test_system": "rape", "assay": "Test C preemergence/postemergence greenhouse plant response rating 0 to 100", "format": "in vivo, Brassica napus", "settings": "POSTEMERGENCE; for Plant response rating, Rape: 0 to 100 scale", "in_short": "as §1"}, "blackgrass [1]": {"test_system": "blackgrass", "assay": "Test B preemergence/postemergence greenhouse plant response rating 0 to 10", "format": "in vivo, Alopecurus myosuroides", "settings": "0 to 10 scale", "in_short": "(§2)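 Test chemicals, dissolved in a non-phytotoxic solvent, were applied to soil at planting and, at the same time, over foliage of seedlings at the one to four leaf stage.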"}, "wild buckwheat": {"test_system": "wild buckwheat", "assay": "Test B preemergence/postemergence greenhouse plant response rating 0 to 10", "format": "in vivo, Polygonum convolvulus", "settings": "0 to 10 scale", "in_short": "as §2"}, "corn": {"test_system": "corn", "assay": "Test C preemergence/postemergence greenhouse plant response rating 0 to 100", "format": "in vivo, Zea mays", "settings": "POSTEMERGENCE; for Plant response rating, Corn: 0 to 100 scale", "in_short": "as §1"}, "cheatgrass": {"test_system": "cheatgrass", "assay": "Test B preemergence/postemergence greenhouse plant response rating 0 to 10", "format": "in vivo, Bromus secalinus", "settings": "0 to 10 scale", "in_short": "as §2"}, "barnyardgrass": {"test_system": "barnyardgrass", "assay": "Test C flood test plant response rating 0 to 100", "format": "in vivo, Echinochloa crus-galli", "settings": "for Plant response rating (0 to 100), Barnyardgrass: under POSTEMERGENCE head (flood test species); for Plant response rating, Barnyardgrass: flood test species listed under POSTEMERGENCE, 0 to 100 scale", "in_short": "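Compounds in non-phytotoxic solvent applied preemergence to sandy loam one day after planting, postemergence at the 1–4 leaf stage, or to ~2.5 cm floodwater over silt loam.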"}, "rice": {"test_system": "rice", "assay": "Test B preemergence/postemergence greenhouse plant response rating 0 to 10", "format": "in vivo, Oryza sativa", "settings": "0 to 10 scale", "in_short": "as §2"}, "cocklebur": {"test_system": "cocklebur", "assay": "Test B preemergence/postemergence greenhouse plant response rating 0 to 10", "format": "in vivo, Xanthium pensylvanicum", "settings": "0 to 10 scale", "in_short": "as §2"}, "duck salad": {"test_system": "duck salad", "assay": "Test C flood test plant response rating 0 to 100", "format": "in vivo, Heteranthera limosa", "settings": "for Plant response rating (0 to 100), Duck salad: under POSTEMERGENCE head (flood test species); for Plant response rating Duck salad: flood test species listed under POSTEMERGENCE, 0 to 100 scale", "in_short": "as §1"}, "sugar beet": {"test_system": "sugar beet", "assay": "Test C preemergence/postemergence greenhouse plant response rating 0 to 100", "format": "in vivo, Beta vulgaris", "settings": "POSTEMERGENCE; for Plant response rating, Sugar beet: 0 to 100 scale", "in_short": "as §1"}, "giant foxtail": {"test_system": "giant foxtail", "assay": "Test C preemergence/postemergence greenhouse plant response rating 0 to 100", "format": "in vivo, Setaria faberii", "settings": "POSTEMERGENCE; for Plant response rating, Giant foxtail: 0 to 100 scale", "in_short": "as §1"}, "bedstraw": {"test_system": "bedstraw", "assay": "Test B preemergence/postemergence greenhouse plant response rating 0 to 10", "format": "in vivo, Galium aparine", "settings": "0 to 10 scale", "in_short": "as §2"}, "cotton": {"test_system": "cotton", "assay": "Test B preemergence/postemergence greenhouse plant response rating 0 to 10", "format": "in vivo, Gossypium hirsutum", "settings": "0 to 10 scale", "in_short": "as §2"}, "barley": {"test_system": "barley", "assay": "Test B preemergence/postemergence greenhouse plant response rating 0 to 10", "format": "in vivo, Hordeum vulgare", "settings": "0 to 10 scale", "in_short": "as §2"}, "blackgrass [2]": {"test_system": "blackgrass", "assay": "Test C preemergence/postemergence greenhouse plant response rating 0 to 100", "format": "in vivo, Alopecurus myosuroides", "settings": "POSTEMERGENCE; for Plant response rating, Blackgrass: 0 to 100 scale", "in_short": "as §1"}, "wheat": {"test_system": "wheat", "assay": "Test C preemergence/postemergence greenhouse plant response rating 0 to 100", "format": "in vivo, Triticum aestivum", "settings": "POSTEMERGENCE; for Plant response rating, Wheat: 0 to 100 scale", "in_short": "as §1"}}, "data": [{"smiles": "C#CC(C)Oc1cc(-c2nn3c(c2Cl)CCCC3)c(F)cc1Cl", "note": "(centres unmarked) [Compound 36]", "values": [{"measurement": "Plant response rating Ryegrass", "setting": "ryegrass; 62 g/ha", "result": 30}, {"measurement": "Plant response rating Ryegrass", "setting": "ryegrass; 125 g/ha", "result": 50}, {"measurement": "Plant response rating (0 to 100), Ryegrass", "setting": "ryegrass; Rate 16 g/ha", "result": 20}, {"measurement": "Plant response rating (0 to 100), Ryegrass", "setting": "ryegrass; Rate 31 g/ha", "result": 30}, {"measurement": "Plant response rating Lambsquarters", "setting": "lambsquarters; 62 g/ha", "result": 100}, {"measurement": "Plant response rating Lambsquarters", "setting": "lambsquarters; 125 g/ha", "result": 100}, {"measurement": "Plant response rating (0 to 100), Lambsquarters", "setting": "lambsquarters; Rate 16 g/ha", "result": 90}, {"measurement": "Plant response rating (0 to 100), Lambsquarters", "setting": "lambsquarters; Rate 31 g/ha", "result": 95}, {"measurement": "Plant response rating, Rape", "setting": "rape; 62 g/ha", "result": 100}, {"measurement": "Plant response rating, Rape", "setting": "rape; 125 g/ha", "result": 100}, {"measurement": "Plant response rating (0 to 100), Rape", "setting": "rape; Rate 16 g/ha", "result": 85}, {"measurement": "Plant response rating (0 to 100), Rape", "setting": "rape; Rate 31 g/ha", "result": 90}, {"measurement": "Plant response rating, Blackgrass", "setting": "blackgrass [1]; POSTEMERGENCE, Rate 50 g/ha", "result": 5}, {"measurement": "Plant response rating, Blackgrass", "setting": "blackgrass [1]; POSTEMERGENCE, Rate 200 g/ha", "result": 7}, {"measurement": "Plant response rating, Blackgrass", "setting": "blackgrass [1]; PREEMERGENCE, Rate 50 g/ha", "result": 4}, {"measurement": "Plant response rating, Blackgrass", "setting": "blackgrass [1]; Rate 200 g/ha, PREEMERGENCE", "result": 10}, {"measurement": "Plant response rating, Wild buckwheat", "setting": "wild buckwheat; POSTEMERGENCE, Rate 50 g/ha", "result": 10}, {"measurement": "Plant response rating, Wild buckwheat", "setting": "wild buckwheat; PREEMERGENCE, Rate 50 g/ha", "result": 10}, {"measurement": "Plant response rating, Wild buckwheat", "setting": "wild buckwheat; Rate 200 g/ha, POSTEMERGENCE", "result": 10}, {"measurement": "Plant response rating, Wild buckwheat", "setting": "wild buckwheat; Rate 200 g/ha, PREEMERGENCE", "result": 10}, {"measurement": "Plant response rating, Corn", "setting": "corn; 62 g/ha", "result": 50}, {"measurement": "Plant response rating, Corn", "setting": "corn; 125 g/ha", "result": 60}, {"measurement": "Plant response rating (0 to 100), Corn", "setting": "corn; Rate 16 g/ha", "result": 30}, {"measurement": "Plant response rating (0 to 100), Corn", "setting": "corn; Rate 31 g/ha", "result": 40}, {"measurement": "Plant response rating, Cheatgrass", "setting": "cheatgrass; POSTEMERGENCE, Rate 50 g/ha", "result": 5}, {"measurement": "Plant response rating, Cheatgrass", "setting": "cheatgrass; POSTEMERGENCE, Rate 200 g/ha", "result": 7}, {"measurement": "Plant response rating, Cheatgrass", "setting": "cheatgrass; PREEMERGENCE, Rate 50 g/ha", "result": 4}, {"measurement": "Plant response rating, Cheatgrass", "setting": "cheatgrass; Rate 200 g/ha, PREEMERGENCE", "result": 6}, {"measurement": "Plant response rating (0 to 100), Barnyardgrass", "setting": "barnyardgrass; Rate 16 g/ha", "result": 100}, {"measurement": "Plant response rating (0 to 100), Barnyardgrass", "setting": "barnyardgrass; Rate 31 g/ha", "result": 100}, {"measurement": "Plant response rating, Barnyardgrass", "setting": "barnyardgrass; 62 g/ha", "result": 100}, {"measurement": "Plant response rating, Barnyardgrass", "setting": "barnyardgrass; 125 g/ha", "result": 100}, {"measurement": "Plant response rating, Rice", "setting": "rice; POSTEMERGENCE, Rate 50 g/ha", "result": 6}, {"measurement": "Plant response rating, Rice", "setting": "rice; PREEMERGENCE, Rate 50 g/ha", "result": 0}, {"measurement": "Plant response rating, Rice", "setting": "rice; Rate 200 g/ha, POSTEMERGENCE", "result": 6}, {"measurement": "Plant response rating, Rice", "setting": "rice; Rate 200 g/ha, PREEMERGENCE", "result": 4}, {"measurement": "Plant response rating, Cocklebur", "setting": "cocklebur; POSTEMERGENCE, Rate 50 g/ha", "result": 9}, {"measurement": "Plant response rating, Cocklebur", "setting": "cocklebur; POSTEMERGENCE, Rate 200 g/ha", "result": 10}, {"measurement": "Plant response rating, Cocklebur", "setting": "cocklebur; PREEMERGENCE, Rate 50 g/ha", "result": 0}, {"measurement": "Plant response rating, Cocklebur", "setting": "cocklebur; Rate 200 g/ha, PREEMERGENCE", "result": 2}, {"measurement": "Plant response rating (0 to 100), Duck salad", "setting": "duck salad; Rate 16 g/ha", "result": 0}, {"measurement": "Plant response rating (0 to 100), Duck salad", "setting": "duck salad; Rate 31 g/ha", "result": 0}, {"measurement": "Plant response rating Duck salad", "setting": "duck salad; 62 g/ha", "result": 30}, {"measurement": "Plant response rating Duck salad", "setting": "duck salad; 125 g/ha", "result": 50}, {"measurement": "Plant response rating, Sugar beet", "setting": "sugar beet; 62 g/ha", "result": 100}, {"measurement": "Plant response rating, Sugar beet", "setting": "sugar beet; 125 g/ha", "result": 100}, {"measurement": "Plant response rating (0 to 100), Sugar beet", "setting": "sugar beet; Rate 16 g/ha", "result": 95}, {"measurement": "Plant response rating (0 to 100), Sugar beet", "setting": "sugar beet; Rate 31 g/ha", "result": 100}, {"measurement": "Plant response rating, Giant foxtail", "setting": "giant foxtail; 62 g/ha", "result": 75}, {"measurement": "Plant response rating, Giant foxtail", "setting": "giant foxtail; 125 g/ha", "result": 85}, {"measurement": "Plant response rating (0 to 100), Giant foxtail", "setting": "giant foxtail; Rate 16 g/ha", "result": 50}, {"measurement": "Plant response rating (0 to 100), Giant foxtail", "setting": "giant foxtail; Rate 31 g/ha", "result": 60}, {"measurement": "Plant response rating, Bedstraw", "setting": "bedstraw; POSTEMERGENCE, Rate 50 g/ha", "result": 10}, {"measurement": "Plant response rating, Bedstraw", "setting": "bedstraw; POSTEMERGENCE, Rate 200 g/ha", "result": 10}, {"measurement": "Plant response rating, Bedstraw", "setting": "bedstraw; PREEMERGENCE, Rate 50 g/ha", "result": 10}, {"measurement": "Plant response rating, Cotton", "setting": "cotton; POSTEMERGENCE, Rate 50 g/ha", "result": 9}, {"measurement": "Plant response rating, Cotton", "setting": "cotton; POSTEMERGENCE, Rate 200 g/ha", "result": 10}, {"measurement": "Plant response rating, Cotton", "setting": "cotton; PREEMERGENCE, Rate 50 g/ha", "result": 4}, {"measurement": "Plant response rating, Cotton", "setting": "cotton; Rate 200 g/ha, PREEMERGENCE", "result": 6}, {"measurement": "Plant response rating, Barley", "setting": "barley; POSTEMERGENCE, Rate 50 g/ha", "result": 5}, {"measurement": "Plant response rating, Barley", "setting": "barley; POSTEMERGENCE, Rate 200 g/ha", "result": 6}, {"measurement": "Plant response rating, Barley", "setting": "barley; PREEMERGENCE, Rate 50 g/ha", "result": 0}, {"measurement": "Plant response rating, Barley", "setting": "barley; Rate 200 g/ha, PREEMERGENCE", "result": 2}, {"measurement": "Plant response rating, Blackgrass", "setting": "blackgrass [2]; 62 g/ha", "result": 50}, {"measurement": "Plant response rating, Blackgrass", "setting": "blackgrass [2]; 125 g/ha", "result": 70}, {"measurement": "Plant response rating (0 to 100), Blackgrass", "setting": "blackgrass [2]; Rate 16 g/ha", "result": 30}, {"measurement": "Plant response rating (0 to 100), Blackgrass", "setting": "blackgrass [2]; Rate 31 g/ha", "result": 40}, {"measurement": "Plant response rating, Wheat", "setting": "wheat; 62 g/ha", "result": 50}, {"measurement": "Plant response rating, Wheat", "setting": "wheat; 125 g/ha", "result": 50}, {"measurement": "Plant response rating (0 to 100), Wheat", "setting": "wheat; Rate 16 g/ha", "result": 20}, {"measurement": "Plant response rating (0 to 100), Wheat", "setting": "wheat; Rate 31 g/ha", "result": 30}]}]}
